The source made the active and inactive calls. The rule behind the calls is not given here.
Tested on: M. tuberculosis H37Rv growth inhibition with meropenem
Test: dose response, H37Rv, with and without meropenem (AID 434987);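 note: growth over 7 days at 37 °C before Alamar Blue read on day 9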
[1] = M. tuberculosis H37Rv growth inhibition, measured here: IC50 without meropenem
[2] = M. tuberculosis H37Rv growth inhibition, measured here: IC90 without meropenem
[3] = measured here: IC90 with meropenem

CCCOc1ccc(C(=O)N/N=C/c2ccc(-c3ccc(S(=O)(=O)Nc4ncccn4)cc3)o2)cc1
IC50: 22.4 µM (inactive) | IC50 [1]: 39.8 µM | IC90 [2]: > 100 µM | IC90 [3]: 26.1 µM

CCOc1ccc(N2C(=O)CC(N)C2=O)cc1 (configuration not stated)
IC50: 30.9 µM (inactive) | IC50 [1]: 45.9 µM | IC90 [2]: 51.4 µM | IC90 [3]: 52.4 µM

COc1cc(NC(=O)c2ccccc2)c(OC)cc1NC(=O)CN1CCOCC1
IC50: 14.5 µM (inactive) | IC50 [1]: 32.1 µM | IC90 [2]: > 100 µM | IC90 [3]: 69.2 µM

CCOc1ccc(N=c2cc(-c3ccc(OC)cc3)oc3ccccc23)cc1
IC50: 45.2 µM (inactive) | IC50 [1]: 40.1 µM | IC90 [2]: 44.4 µM | IC90 [3]: 50.3 µM

CCCCOc1ccc(C(=O)Oc2cccnc2)cc1
IC50: 19.5 µM | IC50 [1]: > 100 µM | IC90 [2]: > 100 µM | IC90 [3]: > 100 µM

COc1cc(C(=O)Nc2cccc(-c3cn4cccnc4n3)c2)cc(OC)c1OC
IC50: 10.9 µM | IC50 [1]: 35 µM | IC90 [2]: > 100 µM | IC90 [3]: 30.2 µM

N#Cc1c(SCC(=O)O)nc(N2CCCCC2)c2c1CCCC2
IC50: 15.6 µM | IC50 [1]: 49.6 µM | IC90 [2]: > 100 µM | IC90 [3]: 27 µM

CCOC(=O)/C=c1\s/c(=C\c2c(OC)ccc3ccccc23)c(=O)n1CC(=O)NCC1CCCO1 (configuration not stated)
IC50: > 100 µM (inactive) | IC50 [1]: > 100 µM | IC90 [2]: > 100 µM | IC90 [3]: > 100 µM

Cc1ccccc1C(=O)NC(=S)Nc1sc2c(c1C#N)CCC(C)C2 (configuration not stated)
IC50: > 100 µM (inactive) | IC50 [1]: > 100 µM | IC90 [2]: > 100 µM | IC90 [3]: > 100 µM

NCCS
IC50: > 100 µM (inactive) | IC50 [1]: > 100 µM | IC90 [2]: > 100 µM | IC90 [3]: > 100 µM

COc1ccc(-c2csc(-c3cccs3)n2)c(OC)c1
IC50: 67.6 µM (inactive) | IC50 [1]: 68.2 µM | IC90 [2]: > 100 µM | IC90 [3]: > 100 µM

Cc1ccc(Nc2nc(N)nc(CC#N)n2)cc1
IC50: 61.3 µM (inactive) | IC50 [1]: 75.6 µM | IC90 [2]: > 100 µM | IC90 [3]: 92.7 µM

COC(=O)c1c(C)n(-c2ccccc2)c2ccc(O)cc12
IC50: 1.53 µM | IC50 [1]: > 100 µM | IC90 [2]: > 100 µM | IC90 [3]: > 100 µM

CCOC(=O)c1cc(-c2ccccc2)sc1NC(=O)C(C)N1C(=O)NC(C)(c2ccc(Cl)cc2)C1=O (configuration not stated)
IC50: > 100 µM (inactive) | IC50 [1]: > 100 µM | IC90 [2]: > 100 µM | IC90 [3]: > 100 µM

COc1ccc(NC(=O)c2cc(C)nc3ccccc23)c(OC)c1
IC50: 11.7 µM | IC50 [1]: 31.6 µM | IC90 [2]: 69.1 µM | IC90 [3]: 12.9 µM

CC[C@@]1(c2ccccc2OC)C(=O)N(C(=O)OC)N1C(=O)OC
IC50: 13.9 µM | IC50 [1]: > 100 µM | IC90 [2]: > 100 µM | IC90 [3]: > 100 µM

CCOC(=O)c1c(C)[nH]c(N=Nc2ccccc2Cl)c1C
IC50: 32.4 µM (inactive) | IC50 [1]: 63.1 µM | IC90 [2]: > 100 µM | IC90 [3]: > 100 µM

CCn1cc(C(=O)O)c(=O)c2cc(F)c(N/N=C/c3ccccc3)cc21
IC50: 22.8 µM (inactive) | IC50 [1]: 36.5 µM | IC90 [2]: > 100 µM | IC90 [3]: > 100 µM

CCNC(=S)N/N=C1\C(=O)c2cccc3cccc1c23
IC50: 5.46 µM | IC50 [1]: > 100 µM | IC90 [2]: > 100 µM | IC90 [3]: 7.61 µM

NNC(=S)Nc1ccc(C(F)(F)F)cc1Cl
IC50: > 100 µM (inactive) | IC50 [1]: > 100 µM | IC90 [2]: > 100 µM | IC90 [3]: > 100 µM

O=C(NNC(=O)c1cc(OCC(F)(F)F)ccc1OCC(F)(F)F)c1cccc(C(F)(F)F)c1
IC50: > 100 µM (inactive) | IC50 [1]: > 100 µM | IC90 [2]: > 100 µM | IC90 [3]: > 100 µM

COc1ccccc1CNC(=O)c1ccc(SC)cc1OC
IC50: 49.8 µM (inactive) | IC50 [1]: 83.5 µM | IC90 [2]: > 100 µM | IC90 [3]: > 100 µM

CN(C)C1=C(Cl)C(=O)N(c2ccc(Cl)c(Cl)c2)C1=O
IC50: 2.73 µM | IC50 [1]: 7.91 µM | IC90 [2]: 24 µM | IC90 [3]: 14.9 µM

NC(=O)C1CCCN(C(=O)c2ccc(NC(=O)c3cccs3)cc2)C1 (configuration not stated)
IC50: > 100 µM (inactive) | IC50 [1]: > 100 µM | IC90 [2]: > 100 µM | IC90 [3]: > 100 µM

O=C1C(Cl)=C(N2CCCCC2)C(=O)N1c1ccccc1
IC50: 23.9 µM | IC50 [1]: > 100 µM | IC90 [2]: > 100 µM | IC90 [3]: > 50 µM

COC(=O)/C(=C\Nc1ccc(Cl)cc1Cl)NC(=O)c1ccc(Cl)cc1Cl
IC50: > 100 µM (inactive) | IC50 [1]: > 100 µM | IC90 [2]: > 100 µM | IC90 [3]: > 100 µM

COc1cccc(/C=N/NC(=O)CSCC(=O)Nc2ccccc2)c1O
IC50: 5.41 µM | IC50 [1]: > 100 µM | IC90 [2]: > 100 µM | IC90 [3]: > 100 µM

CCOc1ccc2c(c1)c(C(C)=O)c(C)n2-c1ccccc1
IC50: < 0.2 µM | IC50 [1]: > 100 µM | IC90 [2]: > 100 µM | IC90 [3]: 1.96 µM

Cc1ccsc1C(=O)NNC(=O)c1csc(N2CCOCC2)n1
IC50: 62.7 µM (inactive) | IC50 [1]: > 100 µM | IC90 [2]: > 100 µM | IC90 [3]: > 100 µM

O=C(COc1ccccc1)Nc1cc(C(F)(F)F)ccc1N1CCCC1
IC50: 46.6 µM (inactive) | IC50 [1]: > 100 µM | IC90 [2]: > 100 µM | IC90 [3]: > 100 µM

CONC(=O)c1cc(OCC(F)(F)F)ccc1OCC(F)(F)F
IC50: > 100 µM (inactive) | IC50 [1]: > 100 µM | IC90 [2]: > 100 µM | IC90 [3]: > 100 µM

COc1cc(NC(=O)c2cc(-c3cccnc3)nc3ccc(Br)cc23)cc(OC)c1
IC50: > 100 µM (inactive) | IC50 [1]: > 100 µM | IC90 [2]: > 100 µM | IC90 [3]: > 100 µM

C(=N\n1cnnc1)/c1ccc(-c2ccccc2)cc1
IC50: > 100 µM (inactive) | IC50 [1]: > 100 µM | IC90 [2]: > 100 µM | IC90 [3]: > 100 µM

O=C1c2ccccc2N2C(=O)c3ccccc3C2N1O (configuration not stated)
IC50: 13.9 µM | IC50 [1]: 39.3 µM | IC90 [2]: > 100 µM | IC90 [3]: 56.4 µM

O=C(CCNc1ccc(F)cc1)c1cccc([N+](=O)[O-])c1
IC50: > 100 µM (inactive) | IC50 [1]: > 100 µM | IC90 [2]: > 100 µM | IC90 [3]: > 100 µM

COc1c(F)c(F)c(C(=O)Nc2c(C)cc(Br)cc2C)c(F)c1F
IC50: 4.58 µM | IC50 [1]: > 100 µM | IC90 [2]: > 100 µM | IC90 [3]: > 100 µM

NC(=O)Nc1ccc(C(=O)OCC(=O)Nc2ccc(Cl)cn2)cc1
IC50: > 100 µM (inactive) | IC50 [1]: > 100 µM | IC90 [2]: > 100 µM | IC90 [3]: > 100 µM

CC(O)/C=C/c1ccc2ccccc2n1 (configuration not stated)
IC50: 27.7 µM (inactive) | IC50 [1]: 53.9 µM | IC90 [2]: > 100 µM | IC90 [3]: 57.5 µM

Nc1c(C(=O)NC2CC2)c2nc3ccccc3nc2n1-c1ccc2c(c1)OCO2
IC50: 95 µM (inactive) | IC50 [1]: 88.5 µM | IC90 [2]: > 100 µM | IC90 [3]: > 100 µM

COc1ccc(C(=O)Nc2oc(-c3ccccc3)c(-c3ccccc3)c2C#N)cc1OC
IC50: 25.2 µM (inactive) | IC50 [1]: 38.7 µM | IC90 [2]: > 100 µM | IC90 [3]: > 100 µM

Cn1nnnc1Sc1ncnc2scc(-c3ccccc3)c12
IC50: > 100 µM (inactive) | IC50 [1]: > 100 µM | IC90 [2]: > 100 µM | IC90 [3]: > 100 µM

Cc1cccnc1NC(=O)c1cc2ccccc2oc1=O
IC50: 46.7 µM (inactive) | IC50 [1]: > 100 µM | IC90 [2]: > 100 µM | IC90 [3]: > 100 µM

Cc1c(C(=O)NC(=S)Nc2ccccc2N2CCCC2)cccc1[N+](=O)[O-]
IC50: 63.5 µM (inactive) | IC50 [1]: 82.6 µM | IC90 [2]: > 100 µM | IC90 [3]: > 100 µM

— PubChem BioAssay AID434987 (Southern Research Specialized Biocontainment Screening …, 2010)
